Here are results for 3 molecules from patent US20120004245A1, “COMPOUNDS FOR THE TREATMENT OF POSTERIOR SEGMENT DISORDERS AND DISEASES” (ALCON RESEARCH, LTD., priority 2010, published 2012).

Bounds are passed on as bounds.

For assay [1], the system named is bovine retinal endothelial cells (BRECs). The experiment in a line: VEGF-induced proliferation of bovine retinal endothelial cells (BrdU ELISA). The format is cell-based. As to conditions: for VEGF ind BREC prolif EC50: 50 ng/ml VEGF, BrdU incorporation; for activity against VEGF-induced proliferation: in words, compared to Compounds I-VII. As to the method:
METHODS. […] After another 22-24 hours the cells are treated with or without 50 ng/ml VEGF media and the test compounds in the 1% FBS media. After 30 hours BrdU is then added for the final 16 hours of the incubation. All cells are then fixed and assayed with a colorimetric BrdU ELISA kit.
On the technique in general: Uptake of a labelled nucleoside into DNA is a usual measure of proliferation.

Another assay has as its target T1, KDR (VEGFR2) kinase (Homo sapiens, UniProt P35968).
T1 construct: purchased Cell Signaling Technology
The experiment in a line: KDR HTRF kinase assay (KinEASE-TK). The class given is biochemical. As to conditions: for IC50: HTRF enzyme assay, KDR (human VEGFR2); for activity against KDR: in words, compared to Compounds I-VII. As for the experimental part:
METHODS. A 7-point HTRF (Homogeneous Time Resolved Fluorescence) kinase assays were performed using a Biomek 3000 Robotic Workstation in a 96-well plate format to determine IC50 values for the test compounds for KDR (VEGFR2) kinase using KinEASE-TK kit from CisBio. This is a general kit for tyrosine kinases including KDR kinase. The KDR kinase was purchased from Cell Signaling Technology. The assay is run in two steps. The phosphorylation of the biotin-tagged generic peptide substrate ([…]) is initiated by the addition of ATP ([…]) in the presence of KDR kinase (5 ng in […] reaction mixture) in step 1 and the reaction is stopped after 30 min incubation at room temperature by the addition of a mixture containing two HTRF detection reagents and EDTA in step 2. The substrate, enzyme, and ATP dilutions were made with the buffer provided by CisBio. Compound dilutions were made either in 5% DMSO or 10:10, (DMSO:Ethanol) to prepare 4× working stock solutions. The HTRF detection reagents were an antibody to phosphotyrosine, labeled with Eu(K) (the HTRF donor), and a streptavidin-XL665 (the HTRF acceptor).

Assay [2] deals with best-corrected visual acuity (BCVA). As to conditions: intravitreal, 4 week intervals, Phase III trials; cited from earlier work.

T1 sequence (P35968 20-1356): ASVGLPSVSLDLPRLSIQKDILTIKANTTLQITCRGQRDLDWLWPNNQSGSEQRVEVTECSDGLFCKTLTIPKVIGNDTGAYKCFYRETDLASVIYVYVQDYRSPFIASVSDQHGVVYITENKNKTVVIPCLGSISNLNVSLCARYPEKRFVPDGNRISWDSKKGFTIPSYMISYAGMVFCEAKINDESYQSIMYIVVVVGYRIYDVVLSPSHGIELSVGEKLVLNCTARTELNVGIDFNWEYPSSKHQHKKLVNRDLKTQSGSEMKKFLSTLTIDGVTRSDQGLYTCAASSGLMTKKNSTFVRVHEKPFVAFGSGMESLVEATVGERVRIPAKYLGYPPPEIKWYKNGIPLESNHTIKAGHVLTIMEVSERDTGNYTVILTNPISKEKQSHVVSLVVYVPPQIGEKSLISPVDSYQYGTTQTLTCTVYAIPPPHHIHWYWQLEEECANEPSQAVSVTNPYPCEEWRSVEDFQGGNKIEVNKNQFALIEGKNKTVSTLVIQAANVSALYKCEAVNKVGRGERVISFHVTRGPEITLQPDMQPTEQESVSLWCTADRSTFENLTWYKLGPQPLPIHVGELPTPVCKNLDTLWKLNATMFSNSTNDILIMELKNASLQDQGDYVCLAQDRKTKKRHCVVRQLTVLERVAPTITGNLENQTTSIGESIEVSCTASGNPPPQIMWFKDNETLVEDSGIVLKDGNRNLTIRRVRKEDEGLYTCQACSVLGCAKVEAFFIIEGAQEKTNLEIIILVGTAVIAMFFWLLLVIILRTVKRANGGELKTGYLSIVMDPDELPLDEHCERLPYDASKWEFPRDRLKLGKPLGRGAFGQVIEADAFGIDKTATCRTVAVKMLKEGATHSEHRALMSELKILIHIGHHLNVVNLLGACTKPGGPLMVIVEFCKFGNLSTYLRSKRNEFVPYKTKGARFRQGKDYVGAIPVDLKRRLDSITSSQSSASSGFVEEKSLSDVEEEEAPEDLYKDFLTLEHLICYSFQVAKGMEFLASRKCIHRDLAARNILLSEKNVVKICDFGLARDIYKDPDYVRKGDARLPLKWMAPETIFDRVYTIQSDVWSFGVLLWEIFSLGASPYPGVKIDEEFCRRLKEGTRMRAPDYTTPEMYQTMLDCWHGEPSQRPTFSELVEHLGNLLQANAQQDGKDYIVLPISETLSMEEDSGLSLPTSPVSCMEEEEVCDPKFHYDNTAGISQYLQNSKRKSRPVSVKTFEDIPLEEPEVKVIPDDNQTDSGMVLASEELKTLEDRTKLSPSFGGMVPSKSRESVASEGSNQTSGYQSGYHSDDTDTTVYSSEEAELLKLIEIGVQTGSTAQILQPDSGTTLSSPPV

Consider `Cc1ccc(F)c(NC(=O)Nc2ncc(-c3cccc4[nH]nc(N)c34)cn2)c1` [IX], for which, in assay [1], the “VEGF ind BREC prolif EC50” value is “Not Active” and the “activity against VEGF-induced proliferation” value was “completely inactive”. Besides, at KDR (VEGFR2) kinase, the IC50 (in general, the concentration needed to halve the response being measured) is more than 10 µM and the “activity against KDR” value is “essentially have no activity”.
The like results for `Nc1n[nH]c2cccc(-c3ccc(NC(=O)Nc4c(Cl)cccc4Cl)cc3)c12` [VIII] were, in that order, “Not Active”, “completely inactive”, more than 10 µM and “essentially have no activity”.

B1: Lucentis: Fab fragment of a humanized monoclonal antibody that binds all isoforms of VEGF-A (antibody, chains of the INN, looked up, V domains shown)
VH: EVQLVESGGGLVQPGGSLRLSCAASGYDFTHYGMNWVRQAPGKGLEWVGWINTYTGEPTYAADFKRRFTFSLDTSKSTAYLQMNSLRAEDTAVYYCAKYPYYYGTSHWYFDVWGQGTLVTVSS
VL: DIQLTQSPSSLSASVGDRVTITCSASQDISNYLNWYQQKPGKAPKVLIYFTSSLHSGVPSRFSGSGSGTDFTLTISSLQPEDFATYYCQQYSTVPWTFGQGTKVEIK
modifications: Fab
On to B1, for which, in assay [2], the “treated patients with maintained best-corrected visual acuity (BCVA)” value is 95%.
